Test results reported in PubChem BioAssay (NCI).
Several values for one entry are separate records, joined by “and”; a condition that tells them apart may be missing. Equal values may be shown once.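 Growth conditions: 96-well plates. Treatment: test compound, 48 hours, 5 concentrations. Analysis: linear interpolation between bracketing concentrations; unreached endpoints set to highest concentration. GI50 marks 50% less growth. TGI marks complete inhibition of growth.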

How the values were obtained:
Experiment in all cases: growth of human tumour cells (NCI), 48 h
BT-549 breast = test system: BT-549 breast
SK-MEL-28 melanoma = test system: SK-MEL-28 melanoma
SNB-19 CNS = test system: SNB-19 CNS
HS 578T breast = test system: HS 578T breast
SW-620 colon = test system: SW-620 colon
MALME-3M melanoma = test system: MALME-3M melanoma
COLO 205 colon = test system: COLO 205 colon
SF-539 CNS = test system: SF-539 CNS
SNB-75 CNS = test system: SNB-75 CNS
ACHN renal = test system: ACHN renal

| SMILES | GI50 (BT-549 breast) [µM] | TGI (BT-549 breast) | GI50 (SK-MEL-28 melanoma) [µM] | TGI (SK-MEL-28 melanoma) [µM] | GI50 (SNB-19 CNS) [µM] | TGI (SNB-19 CNS) | GI50 (HS 578T breast) [µM] | TGI (HS 578T breast) | GI50 (SW-620 colon) [µM] | TGI (SW-620 colon) | GI50 (MALME-3M melanoma) [µM] | TGI (MALME-3M melanoma) | GI50 (COLO 205 colon) [µM] | TGI (COLO 205 colon) | GI50 (SF-539 CNS) [µM] | TGI (SF-539 CNS) | GI50 (SNB-75 CNS) [µM] | TGI (SNB-75 CNS) | GI50 (ACHN renal) [µM] | TGI (ACHN renal) |
| --- | --- | --- | --- | --- | --- | --- | --- | --- | --- | --- | --- | --- | --- | --- | --- | --- | --- | --- | --- | --- |
| COC(=O)C1=CN(CC2=CC(=O)C(C)=CC2=O)C=C(C(=O)OC)C1c1cccc(OC)c1OC | 34.3 | > 100 µM | 31 | > 57.9 | > 43.1 | > 70 µM | 27.1 | > 87.3 µM | 19.4 | > 70.6 µM | 13.5 | 34.3 µM | 9.81 | > 32.6 µM | 17.1 | 56.2 µM | > 100 | > 100 µM | 6.69 | 22.2 µM |
| CCN(CC)CCC(=O)Nc1cccc2c1C(=O)c1c(c(O)c3ccccc3c1O)C2=O | 19.5 | 52.3 µM | 3.65 | 14.4 | 16.8 | 44.8 µM | 16.2 | > 100 µM | 6.93 | 23 µM | 26.9 | 88.7 µM | 20.7 | > 100 µM | 3.38 | 13.8 µM | 2.11 | 10.8 µM | 4.63 | 38.5 µM |
| Nc1nc(-n2cccn2)nc(-n2cccn2)c1Br | > 100 | > 100 µM | > 100 | > 100 |  |  | > 100 | > 100 µM | > 100 | > 100 µM | > 100 | > 100 µM | > 100 | > 100 µM | > 100 | > 100 µM | 24.6 | > 100 µM | > 100 | > 100 µM |
| COc1ccc(NC2=C(Sc3nc(C)cc(C)n3)C(=O)N(Cc3ccccc3)C2=O)cc1Cl | 89.5 | > 160 µM | > 160 | > 160 | > 160 | > 160 µM | 67.9 | > 160 µM | > 160 | > 160 µM | > 160 | > 160 µM | > 160 | > 160 µM | > 160 | > 160 µM | 40.8 | > 160 µM | > 160 | > 160 µM |
| CCCCCCC(C)CC(CCCCCC)NCCOC(=O)c1ccc([N+](=O)[O-])cc1 (stereo not drawn) |  | 31.6 µM and 30.5 µM |  | 27 |  | 32.2 µM and 32.5 µM |  | 41.5 µM and 41.1 µM |  | 28.8 µM and 28.5 µM |  | 28 µM and 25.7 µM |  | 17.9 µM and 12.8 µM |  | 30.1 µM and 27 µM |  | 30.4 µM and 33.4 µM |  | 30.5 µM and 28.1 µM |
| CNC(=O)c1cc(Oc2ccc3nc(NC(=O)Nc4ccc(Cl)c(Cl)c4)sc3c2)ccn1 | 4.88 | > 100 µM | 1.74 | 3.56 | 1.99 | 3.98 µM | 2.77 | 6.66 µM | 8.11 | > 100 µM | 1.51 | 3.3 µM | 4.25 | > 100 µM | 2.17 | 4.69 µM | 1.73 | 3.61 µM | 2.1 | 5.56 µM |
| COc1ccc2c(c1)[nH]c(=O)c1c3cccnc3cn21 | 0.356 | 25.3 µM | 0.054 | > 100 | 0.0515 | > 100 µM | 0.0384 | > 48.8 µM | 0.0327 | 13.2 µM | 0.0437 | 18.3 µM | 0.0359 | 0.146 µM | 0.033 | 2.39 µM | 0.031 | 57.3 µM | 0.082 | 13 µM |
| FC(F)(F)c1ccc2c(c1)N(CCCN1CCN(C3CC3)CC1)c1ccccc1S2 | 16.7 | 35.4 µM | 15.2 | 29.1 | 17.1 | 36.2 µM | 10.3 | 27.1 µM | 4.42 | 18.1 µM | 14 | 31.7 µM | 9.45 | 21.5 µM | 14 | 29.5 µM | 13.5 | 28.1 µM | 10.6 | 24.6 µM |
| CC1CCC2(OC1)OC1CC3C4CC=C5CC(OC6OC(CO)C(OC7OC(C)C(OC8OC(C)C(O)C(O)C8O)C(O)C7O)C(O)C6OC6OC(C)C(O)C(O)C6O)CCC5(C)C4CCC3(C)C1C2C (stereo not drawn) |  | 3.07 µM |  | 1.85 |  | 2.4 µM |  | 1.77 µM |  | 2.89 µM |  | 1.5 µM |  | 3.06 µM |  | 1.52 µM |  | 1.64 µM |  | 2.79 µM |
| Cc1cccc(C(C)O)n1 (stereo not drawn) |  | > 100 µM |  | > 100 |  | > 100 µM |  | > 100 µM |  | > 100 µM |  | > 100 µM |  | > 100 µM |  | > 100 µM |  | > 100 µM |  | > 100 µM |
| Cc1c(C(=O)/C=C/c2ccc(O)cc2)nnn1-c1ccnc2c(C(F)(F)F)cccc12 | 60.2 | > 100 µM | 51.8 | > 100 | 24.9 | > 100 µM | 60.7 | > 100 µM | 27.1 | > 100 µM | 12.2 | 75.3 µM | 5.68 | 34.8 µM | 72.5 | > 100 µM | 8.81 | 68.2 µM | 31.5 | > 100 µM |
| COc1cc2c(cc1OCCCCCOc1cc(-c3ccc(F)cc3)nc(C)n1)N=C[C@@H]1CCCN1C2=O | > 32.8 | > 61.1 µM | > 46.2 | > 79.8 | > 46.2 | > 100 µM | > 47.5 | > 81.2 µM | > 32.1 | > 87.1 µM | > 48.3 | > 68.7 µM | 4.32 | 7.64 µM | > 100 | > 100 µM | > 100 | > 100 µM | > 37.6 | > 68.6 µM |
| O=C1C(NCCO)=C(N2CC2)C(=O)C(NCCO)=C1N1CC1 |  | > 100 µM |  | > 100 |  | > 100 µM |  | > 100 µM |  | > 83.3 µM |  | > 100 µM |  | > 90.3 µM |  | 98 µM |  | > 100 µM |  | > 100 µM |
